Results as given in patent US20250195530A1, “POLQ INHIBITORS” (ASTRAZENECA AB, priority 2022, published 2025).

tested on: DLD-1 BRCA2−/− cells; test: Homologous recombination synthetic lethal inhibition of proliferation, DLD-1 BRCA2-/- (Cell Titre Glo 3D); format: cell-based; details: DLD-1 BRCA2-/- proliferation; column head only partly shown
Outline: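 Cells are seeded in RPMI 1640 (phenol red free, 10% FBS, GlutaMAX) onto pre-dosed compound (10 μM to 0.51 nM, three-fold). Plates are incubated at 37 °C, and medium plus compound are refreshed on day 6. Viability is read by CellTiter-Glo 3D at day 7 (DLD-1) or day 12 (DLD-1 BRCA2−/−), and the IC50 is fitted.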

Row | Compound | POLQ PD Prolif Lumin
1 | CC1(Oc2ncnc3c2nc(-c2cccc(O[C@H]4C[C@H](C(=O)O)C4)c2Cl)n3Cc2cccc(Cl)c2)CC1 [Example T256, (1r,3r)-3-(2-chloro-3-(9-(3-chlorobenzyl)-6-(1-methylcyclopropoxy)-9H-purin-8-yl)phenoxy)cyclobutane-1-carboxylic acid] | 6.9
2 | CC1(Oc2ncnc3c2nc(-c2cccc(O[C@H]4C[C@@H](C(=O)O)C4)c2Cl)n3Cc2cccc(Cl)c2)CC1 [Example T257, (1s,3s)-3-(2-chloro-3-(9-(3-chlorobenzyl)-6-(1-methylcyclopropoxy)-9H-purin-8-yl)phenoxy)cyclobutane-1-carboxylic acid] | 7

same assay, conditions: Homo sapiens, DLD-1, DLD-1 BRCA2-/- proliferation; column head only partly shown; read-out: POLQ PD Prolif Lumin (converted)

Row | Compound | IC50
3 | Cc1ccnc(Cn2c(-c3ccc(C(=O)NCCCO)cc3Cl)nc3c(OC4(C)CC4)ncnc32)c1 [Example T217, 3-chloro-N-(3-hydroxypropyl)-4-(6-(1-methylcyclopropoxy)-9-((4-methylpyridin-2-yl)methyl)-9H-purin-8-yl)benzamide] | 1000 nM
4 | Cc1ccnc(Cn2c(-c3ccc(C(=O)NC[C@H](C)O)cc3Cl)nc3c(OC4(C)CC4)ncnc32)c1 [Example T218, (S)-3-chloro-N-(2-hydroxypropyl)-4-(6-(1-methylcyclopropoxy)-9-((4-methylpyridin-2-yl)methyl)-9H-purin-8-yl)benzamide] | 631 nM
5 | CC(=O)NCCOc1ccc(-c2nc3c(OC4(C)CC4)ncnc3n2Cc2cc(C)ccn2)c(Cl)c1 [Example T219, N-(2-(3-chloro-4-(6-(1-methylcyclopropoxy)-9-((4-methylpyridin-2-yl)methyl)-9H-purin-8-yl)phenoxy)ethyl)acetamide] | 251 nM
6 | Cc1ccnc(Cn2c(-c3ccc(C(=O)N(C)CCO)cc3Cl)nc3c(OC4(C)CC4)ncnc32)c1 [Example T220, 3-chloro-N-(2-hydroxyethyl)-N-methyl-4-(6-(1-methylcyclopropoxy)-9-((4-methylpyridin-2-yl)methyl)-9H-purin-8-yl)benzamide] | 3160 nM
7 | CCNC(=O)COc1ccc(-c2nc3c(OC4(C)CC4)ncnc3n2Cc2cc(C)ccn2)c(Cl)c1 [Example T221, 2-(3-chloro-4-(6-(1-methylcyclopropoxy)-9-((4-methylpyridin-2-yl)methyl)-9H-purin-8-yl)phenoxy)-N-ethylacetamide] | 316 nM
8 | COC(=O)NCCc1ccc(-c2nc3c(OC4(C)CC4)ncnc3n2Cc2cc(C)ccn2)c(Cl)c1 [Example T222, methyl (3-chloro-4-(6-(1-methylcyclopropoxy)-9-((4-methylpyridin-2-yl)methyl)-9H-purin-8-yl)phenethyl)carbamate] | 200 nM
9 | Cc1ccnc(Cn2c(-c3ccc(CCNC(=O)CO)cc3Cl)nc3c(OC4(C)CC4)ncnc32)c1 [Example T223, N-(3-chloro-4-(6-(1-methylcyclopropoxy)-9-((4-methylpyridin-2-yl)methyl)-9H-purin-8-yl)phenethyl)-2-hydroxyacetamide] | 501 nM
10 | Cc1ccnc(Cn2c(-c3ccc(CC(=O)NCCO)cc3Cl)nc3c(OC4(C)CC4)ncnc32)c1 [Example T224, 2-(3-chloro-4-(6-(1-methylcyclopropoxy)-9-((4-methylpyridin-2-yl)methyl)-9H-purin-8-yl)phenyl)-N-(2-hydroxyethyl)acetamide] | 1000 nM
11 | Cc1ccnc(Cn2c(-c3ccc(OCC(=O)NCCO)cc3Cl)nc3c(OC4(C)CC4)ncnc32)c1 [Example T226, 2-(3-chloro-4-(6-(1-methylcyclopropoxy)-9-((4-methylpyridin-2-yl)methyl)-9H-purin-8-yl)phenoxy)-N-(2-hydroxyethyl)acetamide] | 158 nM
12 | Cc1ccnc(Cn2c(-c3ccc(OCCNC(=O)CO)cc3Cl)nc3c(OC4(C)CC4)ncnc32)c1 [Example T227, N-(2-(3-chloro-4-(6-(1-methylcyclopropoxy)-9-((4-methylpyridin-2-yl)methyl)-9H-purin-8-yl)phenoxy)ethyl)-2-hydroxyacetamide] | 316 nM
13 | COC(=O)NCCOc1ccc(-c2nc3c(OC4(C)CC4)ncnc3n2Cc2cc(C)ccn2)c(Cl)c1 [Example T228, methyl (2-(3-chloro-4-(6-(1-methylcyclopropoxy)-9-((4-methylpyridin-2-yl)methyl)-9H-purin-8-yl)phenoxy)ethyl)carbamate] | 126 nM
14 | Cc1ccnc(Cn2c(-c3ccc(OCCOCCO)cc3Cl)nc3c(OC4(C)CC4)ncnc32)c1 [Example T233, 2-(2-(3-chloro-4-(6-(1-methylcyclopropoxy)-9-((4-methylpyridin-2-yl)methyl)-9H-purin-8-yl)phenoxy)ethoxy)ethan-1-ol] | 158 nM
15 | Cc1ccnc(Cn2c(-c3ccc(N4CCNCC4)cc3Cl)nc3c(OC4(C)CC4)ncnc32)c1 [Example T235, 8-(2-chloro-4-(piperazin-1-yl)phenyl)-6-(1-methylcyclopropoxy)-9-((4-methylpyridin-2-yl)methyl)-9H-purine] | 398 nM
16 | Cc1cnc(Cn2c(-c3ccc(OCCN4CC[C@@H](O)C4)cc3Cl)nc3c(OC4(C)CC4)ncnc32)s1 [Example T245, (R)-1-(2-(3-chloro-4-(6-(1-methylcyclopropoxy)-9-((5-methylthiazol-2-yl)methyl)-9H-purin-8-yl)phenoxy)ethyl)pyrrolidin-3-ol] | 631 nM
17 | Cc1ccnc(Cn2c(-c3ccc(NCCN(C)C)cc3Cl)nc3c(OC4(C)CC4)ncnc32)c1 [Example T247, N1-(3-chloro-4-(6-(1-methylcyclopropoxy)-9-((4-methylpyridin-2-yl)methyl)-9H-purin-8-yl)phenyl)-N2,N2-dimethylethane-1,2-diamine] | 501 nM
18 | C/C(=C\COc1ccc(-c2nc3c(OC4(C)CC4)ncnc3n2Cc2cccc(Cl)c2)c(Cl)c1)C(=O)O [Example T255, (E)-4-(3-chloro-4-(9-(3-chlorobenzyl)-6-(1-methylcyclopropoxy)-9H-purin-8-yl)phenoxy)-2-methylbut-2-enoic acid] | 316 nM
19 | C#CCNC(=O)COc1ccc(-c2nc3c(OC4(C)CC4)ncnc3n2Cc2cc(C)ccn2)c(Cl)c1 [Example T266, 2-(3-chloro-4-(6-(1-methylcyclopropoxy)-9-((4-methylpyridin-2-yl)methyl)-9H-purin-8-yl)phenoxy)-N-(prop-2-yn-1-yl)acetamide] | 158 nM
20 | Cc1ccnc(Cn2c(-c3ccc(C(=O)NC4CC(F)C4)cc3Cl)nc3c(OC4(C)CC4)ncnc32)c1 (stereo not drawn) [Example T280, 3-chloro-N-(3-fluorocyclobutyl)-4-(6-(1-methylcyclopropoxy)-9-((4-methylpyridin-2-yl)methyl)-9H-purin-8-yl)benzamide] | 794 nM
21 | Cc1ccnc(Cn2c(-c3ccc(C(=O)N4CC[C@H](F)C4)cc3Cl)nc3c(OC4(C)CC4)ncnc32)c1 [Example T281, (S)-(3-chloro-4-(6-(1-methylcyclopropoxy)-9-((4-methylpyridin-2-yl)methyl)-9H-purin-8-yl)phenyl)(3-fluoropyrrolidin-1-yl)methanone] | 794 nM
22 | Cc1ccnc(Cn2c(-c3ccc(C(=O)N4C[C@@H](O)[C@H](F)C4)cc3Cl)nc3c(OC4(C)CC4)ncnc32)c1 [Example T282, (3-chloro-4-(6-(1-methylcyclopropoxy)-9-((4-methylpyridin-2-yl)methyl)-9H-purin-8-yl)phenyl)((3R,4R)-3-fluoro-4-hydroxypyrrolidin-1-yl)methanone] | 2510 nM
23 | Cc1ccnc(Cn2c(-c3ccc(OCC(=O)N4CC(F)C4)cc3Cl)nc3c(OC4(C)CC4)ncnc32)c1 [Example T283, 2-(3-chloro-4-(6-(1-methylcyclopropoxy)-9-((4-methylpyridin-2-yl)methyl)-9H-purin-8-yl)phenoxy)-1-(3-fluoroazetidin-1-yl)ethan-1-one] | 158 nM
24 | Cc1ccnc(Cn2c(-c3ccc(C(=O)N(C)CCC#N)cc3Cl)nc3c(OC4(C)CC4)ncnc32)c1 [Example T286, 3-chloro-N-(2-cyanoethyl)-N-methyl-4-(6-(1-methylcyclopropoxy)-9-((4-methylpyridin-2-yl)methyl)-9H-purin-8-yl)benzamide] | 1260 nM
25 | Cc1ccnc(Cn2c(-c3ccc(C(=O)N4CCNC(=O)C4)cc3Cl)nc3c(OC4(C)CC4)ncnc32)c1 [Example T287, 4-(3-chloro-4-(6-(1-methylcyclopropoxy)-9-((4-methylpyridin-2-yl)methyl)-9H-purin-8-yl)benzoyl)piperazin-2-one] | > 7940 nM
26 | CC1(Oc2ncnc3c2nc(-c2ccc(CCCCC(=O)O)cc2Cl)n3Cc2cccc(Cl)c2)CC1 [Example T289, 5-(3-chloro-4-(9-(3-chlorobenzyl)-6-(1-methylcyclopropoxy)-9H-purin-8-yl)phenyl)pentanoic acid] | 126 nM
27 | C[C@H](CCOc1cccc(-c2nc3c(OC4(C)CC4)ncnc3n2Cc2cccc(Cl)c2)c1Cl)C(=O)O [Example T297, (R)-4-(2-chloro-3-(9-(3-chlorobenzyl)-6-(1-methylcyclopropoxy)-9H-purin-8-yl)phenoxy)-2-methylbutanoic acid] | 63.1 nM

same assay, conditions: Homo sapiens, DLD-1, first proliferation column (c5), taken as DLD-1 BRCA2-/-; read-out: POLQ PD Prolif Lumin (converted)

Row | Compound | IC50
28 | CC1(Oc2ncnc3c2nc(-c2cccc(OCC(C)(C)C(=O)O)c2Cl)n3Cc2cccc(Cl)c2)CC1 [Example T298, 3-(2-chloro-3-(9-(3-chlorobenzyl)-6-(1-methylcyclopropoxy)-9H-purin-8-yl)phenoxy)-2,2-dimethylpropanoic acid] | 631 nM
29 | CC1(Oc2ncnc3c2nc(-c2ccc(OCC[C@@](C)(O)C(=O)O)cc2Cl)n3Cc2cccc(Cl)c2)CC1 [Example T301, (R)-4-(3-chloro-4-(9-(3-chlorobenzyl)-6-(1-methylcyclopropoxy)-9H-purin-8-yl)phenoxy)-2-hydroxy-2-methylbutanoic acid] | 2510 nM
30 | CC1(Oc2ncnc3c2nc(-c2ccc(OCCOCCC(=O)O)cc2Cl)n3Cc2cccc(Cl)c2)CC1 [Example T303, 3-(2-(3-chloro-4-(9-(3-chlorobenzyl)-6-(1-methylcyclopropoxy)-9H-purin-8-yl)phenoxy)ethoxy)propanoic acid] | 126 nM
